According to patent US20160009693A1, “HERBICIDAL COMPOUNDS” (SYNGENTA LIMITED, priority 2013, published 2016):

Legend:
Type in all cases: in vivo
Details in all cases: applied at 1000 g/h, evaluated after 13 days
[1] = system: Alopecurus myosuroides (ALOMY); experiment: Herbicidal glasshouse test, pre-emergence, ALOMY
Method: (§1) Seeds of a variety of test species are sown in standard soil in pots (Alopecurus myosuroides (ALOMY), Setaria faberi (SETFA), Echinochloa crus-galli (ECHCG), Solanum nigrum (SOLNI), Amaranthus retoflexus (AMARE), Ipomoea hederacea (IPOHE)). After cultivation for one day (pre-emergence) or after 8 days cultivation (post-emergence) under controlled conditions in a glasshouse (at 24/16° C., day/night; 14 hours light; 65% humidity), the plants are sprayed with an aqueous spray solution derived from the formulation of the technical active ingredient in acetone / water (50:50) solution containing 0.5% Tween 20 (polyoxyethelyene sorbitan monolaurate, CAS RN 9005-64-5). […] The test plants are then grown in a glasshouse under controlled conditions in a glasshouse (at 24/16° C., day/night; 14 hours light; 65% humidity) and watered twice daily. After 13 days for pre and post-emergence, the test is evaluated for the percentage damage caused to the plant. The biological activities are shown in the following table on a five point scale (5=80-100%; 4=60-79%; 3=40-59%; 2=20-39%; 1=0-19%).

Setaria faberi (SETFA) [2] = experiment: Herbicidal glasshouse test, post-emergence, SETFA
Method: as §1

[3] = system: Ipomoea hederacea (IPOHE); experiment: Herbicidal glasshouse test, post-emergence, IPOHE
Method: as §1

[4] = system: Echinochloa crus-galli (ECHCG); experiment: Herbicidal glasshouse test, pre-emergence, ECHCG
Method: as §1

[5] = system: Amaranthus retoflexus (AMARE); experiment: Herbicidal glasshouse test, pre-emergence, AMARE
Method: as §1

[6] = system: Ipomoea hederacea (IPOHE); experiment: Herbicidal glasshouse test, pre-emergence, IPOHE
Method: as §1

Setaria faberi (SETFA) [7] = experiment: Herbicidal glasshouse test, pre-emergence, SETFA
Method: as §1

Solanum nigrum (SOLNI) [8] = experiment: Herbicidal glasshouse test, pre-emergence, SOLNI
Method: as §1

Solanum nigrum (SOLNI) [9] = experiment: Herbicidal glasshouse test, post-emergence, SOLNI
Method: as §1

[10] = system: Amaranthus retoflexus (AMARE); experiment: Herbicidal glasshouse test, post-emergence, AMARE
Method: as §1

[11] = system: Alopecurus myosuroides (ALOMY); experiment: Herbicidal glasshouse test, post-emergence, ALOMY
Method: as §1

[12] = system: Echinochloa crus-galli (ECHCG); experiment: Herbicidal glasshouse test, post-emergence, ECHCG
Method: as §1

CC(Cl)c1ccc(-n2c(=O)c(C(=O)Nc3nnnn3C)nn(C)c2=O)cc1 (stereo not drawn) [Compound 1.010]
PRE Application ALOMY, percentage damage (five point scale) [1]: 5 (5=80-100%) | POST Application SETFA, percentage damage (five point scale) (Setaria faberi (SETFA) [2]): 5 (5=80-100%) | POST Application IPOHE, percentage damage (five point scale) [3]: 5 (5=80-100%) | PRE Application ECHCG, percentage damage (five point scale) [4]: 5 (5=80-100%) | PRE Application AMARE, percentage damage (five point scale) [5]: 4 (4=60-79%) | PRE Application IPOHE, percentage damage (five point scale) [6]: 5 (5=80-100%) | PRE Application SETFA, percentage damage (five point scale) (Setaria faberi (SETFA) [7]): 5 (5=80-100%) | PRE Application SOLNI, percentage damage (five point scale) (Solanum nigrum (SOLNI) [8]): 5 (5=80-100%) | POST Application SOLNI, percentage damage (five point scale) (Solanum nigrum (SOLNI) [9]): 5 (5=80-100%) | POST Application AMARE, percentage damage (five point scale) [10]: 5 (5=80-100%) | POST Application ALOMY, percentage damage (five point scale) [11]: 5 (5=80-100%) | POST Application ECHCG, percentage damage (five point scale) [12]: 5 (5=80-100%)

C=CCn1nc(C(=O)Nc2nnnn2C)c(=O)n(-c2ccc(F)cc2)c1=O [Compound 1.011]
PRE Application ALOMY, percentage damage (five point scale) [1]: 4 (4=60-79%) | POST Application SETFA, percentage damage (five point scale) (Setaria faberi (SETFA) [2]): 5 (5=80-100%) | POST Application IPOHE, percentage damage (five point scale) [3]: 5 (5=80-100%) | PRE Application ECHCG, percentage damage (five point scale) [4]: 5 (5=80-100%) | PRE Application AMARE, percentage damage (five point scale) [5]: 5 (5=80-100%) | PRE Application IPOHE, percentage damage (five point scale) [6]: 5 (5=80-100%) | PRE Application SETFA, percentage damage (five point scale) (Setaria faberi (SETFA) [7]): 4 (4=60-79%) | PRE Application SOLNI, percentage damage (five point scale) (Solanum nigrum (SOLNI) [8]): 5 (5=80-100%) | POST Application SOLNI, percentage damage (five point scale) (Solanum nigrum (SOLNI) [9]): 5 (5=80-100%) | POST Application AMARE, percentage damage (five point scale) [10]: 5 (5=80-100%) | POST Application ALOMY, percentage damage (five point scale) [11]: 5 (5=80-100%) | POST Application ECHCG, percentage damage (five point scale) [12]: 5 (5=80-100%)

CC#CCn1nc(C(=O)Nc2nnnn2C)c(=O)n(-c2cccc(F)c2)c1=O [Compound 1.012]
PRE Application ALOMY, percentage damage (five point scale) [1]: 4 (4=60-79%) | POST Application SETFA, percentage damage (five point scale) (Setaria faberi (SETFA) [2]): 5 (5=80-100%) | POST Application IPOHE, percentage damage (five point scale) [3]: 4 (4=60-79%) | PRE Application ECHCG, percentage damage (five point scale) [4]: 3 (3=40-59%) | PRE Application AMARE, percentage damage (five point scale) [5]: 4 (4=60-79%) | PRE Application IPOHE, percentage damage (five point scale) [6]: 5 (5=80-100%) | PRE Application SETFA, percentage damage (five point scale) (Setaria faberi (SETFA) [7]): 1 (1=0-19%) | PRE Application SOLNI, percentage damage (five point scale) (Solanum nigrum (SOLNI) [8]): 5 (5=80-100%) | POST Application SOLNI, percentage damage (five point scale) (Solanum nigrum (SOLNI) [9]): 5 (5=80-100%) | POST Application AMARE, percentage damage (five point scale) [10]: 5 (5=80-100%) | POST Application ALOMY, percentage damage (five point scale) [11]: 5 (5=80-100%) | POST Application ECHCG, percentage damage (five point scale) [12]: 5 (5=80-100%)

CC(C)CCn1nc(C(=O)Nc2nnnn2C)c(=O)n(-c2cccc(F)c2)c1=O [Compound 1.013]
PRE Application ALOMY, percentage damage (five point scale) [1]: 1 (1=0-19%) | POST Application SETFA, percentage damage (five point scale) (Setaria faberi (SETFA) [2]): 3 (3=40-59%) | POST Application IPOHE, percentage damage (five point scale) [3]: 4 (4=60-79%) | PRE Application ECHCG, percentage damage (five point scale) [4]: 1 (1=0-19%) | PRE Application AMARE, percentage damage (five point scale) [5]: 2 (2=20-39%) | PRE Application IPOHE, percentage damage (five point scale) [6]: 2 (2=20-39%) | PRE Application SETFA, percentage damage (five point scale) (Setaria faberi (SETFA) [7]): 1 (1=0-19%) | PRE Application SOLNI, percentage damage (five point scale) (Solanum nigrum (SOLNI) [8]): 3 (3=40-59%) | POST Application SOLNI, percentage damage (five point scale) (Solanum nigrum (SOLNI) [9]): 5 (5=80-100%) | POST Application AMARE, percentage damage (five point scale) [10]: 2 (2=20-39%) | POST Application ALOMY, percentage damage (five point scale) [11]: 5 (5=80-100%) | POST Application ECHCG, percentage damage (five point scale) [12]: 1 (1=0-19%)

C=CCn1nc(C(=O)Nc2nnnn2C)c(=O)n(Cc2cccc(F)c2)c1=O [Compound 1.014]
PRE Application ALOMY, percentage damage (five point scale) [1]: 3 (3=40-59%) | POST Application SETFA, percentage damage (five point scale) (Setaria faberi (SETFA) [2]): 5 (5=80-100%) | POST Application IPOHE, percentage damage (five point scale) [3]: 5 (5=80-100%) | PRE Application ECHCG, percentage damage (five point scale) [4]: 5 (5=80-100%) | PRE Application AMARE, percentage damage (five point scale) [5]: 5 (5=80-100%) | PRE Application IPOHE, percentage damage (five point scale) [6]: 5 (5=80-100%) | PRE Application SETFA, percentage damage (five point scale) (Setaria faberi (SETFA) [7]): 1 (1=0-19%) | PRE Application SOLNI, percentage damage (five point scale) (Solanum nigrum (SOLNI) [8]): 5 (5=80-100%) | POST Application SOLNI, percentage damage (five point scale) (Solanum nigrum (SOLNI) [9]): 5 (5=80-100%) | POST Application AMARE, percentage damage (five point scale) [10]: 5 (5=80-100%) | POST Application ALOMY, percentage damage (five point scale) [11]: 2 (2=20-39%) | POST Application ECHCG, percentage damage (five point scale) [12]: 4 (4=60-79%)

Cn1nnnc1NC(=O)c1nn(C)c(=O)n(-c2ccc(F)cc2)c1=O [Compound 1.015]
PRE Application ALOMY, percentage damage (five point scale) [1]: 5 (5=80-100%) | POST Application SETFA, percentage damage (five point scale) (Setaria faberi (SETFA) [2]): 5 (5=80-100%) | POST Application IPOHE, percentage damage (five point scale) [3]: 5 (5=80-100%) | PRE Application ECHCG, percentage damage (five point scale) [4]: 5 (5=80-100%) | PRE Application AMARE, percentage damage (five point scale) [5]: 5 (5=80-100%) | PRE Application IPOHE, percentage damage (five point scale) [6]: 5 (5=80-100%) | PRE Application SETFA, percentage damage (five point scale) (Setaria faberi (SETFA) [7]): 5 (5=80-100%) | PRE Application SOLNI, percentage damage (five point scale) (Solanum nigrum (SOLNI) [8]): 5 (5=80-100%) | POST Application SOLNI, percentage damage (five point scale) (Solanum nigrum (SOLNI) [9]): 5 (5=80-100%) | POST Application AMARE, percentage damage (five point scale) [10]: 5 (5=80-100%) | POST Application ALOMY, percentage damage (five point scale) [11]: 5 (5=80-100%) | POST Application ECHCG, percentage damage (five point scale) [12]: 5 (5=80-100%)

Cc1ccc(Cl)cc1-n1c(=O)c(C(=O)Nc2nnnn2C)nn(C)c1=O [Compound 1.016]
PRE Application ALOMY, percentage damage (five point scale) [1]: 5 (5=80-100%) | POST Application SETFA, percentage damage (five point scale) (Setaria faberi (SETFA) [2]): 5 (5=80-100%) | POST Application IPOHE, percentage damage (five point scale) [3]: 5 (5=80-100%) | PRE Application ECHCG, percentage damage (five point scale) [4]: 5 (5=80-100%) | PRE Application AMARE, percentage damage (five point scale) [5]: 5 (5=80-100%) | PRE Application IPOHE, percentage damage (five point scale) [6]: 5 (5=80-100%) | PRE Application SETFA, percentage damage (five point scale) (Setaria faberi (SETFA) [7]): 5 (5=80-100%) | PRE Application SOLNI, percentage damage (five point scale) (Solanum nigrum (SOLNI) [8]): 5 (5=80-100%) | POST Application SOLNI, percentage damage (five point scale) (Solanum nigrum (SOLNI) [9]): 5 (5=80-100%) | POST Application AMARE, percentage damage (five point scale) [10]: 5 (5=80-100%) | POST Application ALOMY, percentage damage (five point scale) [11]: 5 (5=80-100%) | POST Application ECHCG, percentage damage (five point scale) [12]: 5 (5=80-100%)

Cn1nnnc1NC(=O)c1nn(C)c(=O)n(-c2cccc(F)c2)c1=O [Compound 1.017]
PRE Application ALOMY, percentage damage (five point scale) [1]: 5 (5=80-100%) | POST Application SETFA, percentage damage (five point scale) (Setaria faberi (SETFA) [2]): 5 (5=80-100%) | POST Application IPOHE, percentage damage (five point scale) [3]: 5 (5=80-100%) | PRE Application ECHCG, percentage damage (five point scale) [4]: 5 (5=80-100%) | PRE Application AMARE, percentage damage (five point scale) [5]: 5 (5=80-100%) | PRE Application IPOHE, percentage damage (five point scale) [6]: 5 (5=80-100%) | PRE Application SETFA, percentage damage (five point scale) (Setaria faberi (SETFA) [7]): 5 (5=80-100%) | PRE Application SOLNI, percentage damage (five point scale) (Solanum nigrum (SOLNI) [8]): 5 (5=80-100%) | POST Application SOLNI, percentage damage (five point scale) (Solanum nigrum (SOLNI) [9]): 5 (5=80-100%) | POST Application AMARE, percentage damage (five point scale) [10]: 5 (5=80-100%) | POST Application ALOMY, percentage damage (five point scale) [11]: 5 (5=80-100%) | POST Application ECHCG, percentage damage (five point scale) [12]: 5 (5=80-100%)

Cc1ccccc1-n1c(=O)c(C(=O)Nc2nnnn2C)nn(C)c1=O [Compound 1.018]
PRE Application ALOMY, percentage damage (five point scale) [1]: 5 (5=80-100%) | POST Application SETFA, percentage damage (five point scale) (Setaria faberi (SETFA) [2]): 5 (5=80-100%) | POST Application IPOHE, percentage damage (five point scale) [3]: 5 (5=80-100%) | PRE Application ECHCG, percentage damage (five point scale) [4]: 5 (5=80-100%) | PRE Application AMARE, percentage damage (five point scale) [5]: 5 (5=80-100%) | PRE Application IPOHE, percentage damage (five point scale) [6]: 5 (5=80-100%) | PRE Application SETFA, percentage damage (five point scale) (Setaria faberi (SETFA) [7]): 5 (5=80-100%) | PRE Application SOLNI, percentage damage (five point scale) (Solanum nigrum (SOLNI) [8]): 5 (5=80-100%) | POST Application SOLNI, percentage damage (five point scale) (Solanum nigrum (SOLNI) [9]): 5 (5=80-100%) | POST Application AMARE, percentage damage (five point scale) [10]: 5 (5=80-100%) | POST Application ALOMY, percentage damage (five point scale) [11]: 5 (5=80-100%) | POST Application ECHCG, percentage damage (five point scale) [12]: 5 (5=80-100%)
